Assay results published in patent US20250032635A1, “LIGAND-POLAR DRUG CONJUGATES” (priority 2023, published 2025).

Experiments:
SK-BR-3 = assay: In vitro cytotoxicity assay, SK-BR-3; type: cell-based; settings: SK-BR-3, HER2+++
Source text: (§1) Breast cancer cell line MDA-MB-231 and SK-BR-3, gastric cancer cell line NCI-N87, ovarian cancer cell line SK-OV-3, and pancreatic cancer cell line Capan-1 were purchased from ATCC. Breast cancer cell line JIMT-1 was purchased from Deutsche Sammlung von Mikroorganismen und Zellkulturen (DSMZ, Germany). Gastric cancer cell line MKN45 was purchased from RIKEN. Human umbilical vein endothelial cell line (HUVAC) was purchased from BCRC (Bioresource Collection and Research Center, Hsinchu City, Taiwan).
(§2) Human MDR1 overexpressed NCI-N87 (NCI-N87-hMDR1) cell line was produced by lentiviral vector-mediated gene transduction. Briefly, the lentiviral transfer vector contains both hEF1α promotor-driven hMDR1 coding sequence (CDS) and hPGK promoter-driven EGFP-IRES-Puro bicistronic cassette. The lentivirus was packaged using second-generation lentiviral system in 293T cell line. After transfection, stable NCI-N87-hMDR1 was selected and maintained in puromycin (0.55 μg/mL) containing RPMI-1640 medium. JIMT-1 and MDA-MB-231 were maintained in DMEM supplemented with 10% heat-inactivated fetal bovine serum (FBS). […]
(§3) In vitro cytotoxicity assays were performed as previously described (Boyd and Paull, 1995; Phillips et al., 2008). […] IC50, the half maximal inhibitory concentration, was calculated from dose-response curves which was generated by four-parameter curve fitting.

NCI-N87 = assay: In vitro cytotoxicity assay, NCI-N87; type: cell-based
Source text: as §1
(§4) Human MDR1 overexpressed NCI-N87 (NCI-N87-hMDR1) cell line was produced by lentiviral vector-mediated gene transduction. Briefly, the lentiviral transfer vector contains both hEF1α promotor-driven hMDR1 coding sequence (CDS) and hPGK promoter-driven EGFP-IRES-Puro bicistronic cassette. The lentivirus was packaged using second-generation lentiviral system in 293T cell line. After transfection, stable NCI-N87-hMDR1 was selected and maintained in puromycin (0.55 μg/mL) containing RPMI-1640 medium. JIMT-1 and MDA-MB-231 were maintained in DMEM supplemented with 10% heat-inactivated fetal bovine serum (FBS). NCI-N87, NCI-N87-hMDR1, SK—OV-3, and MKN45 were maintained in RPMI-1640 supplemented with 10% heat-inactivated FBS. SK-BR-3 was maintained in McCoy's 5A supplemented with 10% heat-inactivated FBS. Capan-1 was maintained in IMDM supplemented with 20% heat-inactivated FBS. HUVAC was maintained in M199 supplemented with 25 U/mL heparin, 30 μg/mL ECGS and 10% heat-inactivated FBS. All cell lines were cultured at 37° C. under 5% CO2 atmosphere.
(§5) In Vitro Cytotoxicity Assays of APDCs
as §3

JIMT-1 = assay: In vitro cytotoxicity assay, JIMT-1; type: cell-based; settings: JIMT-1, HER2++
Source text: as §1, §2, §3

Capan-1 = assay: In vitro cytotoxicity assay, Capan-1; type: cell-based; settings: Capan-1, HER2++
Source text: as §1, §2, §3

MKN45 = assay: In vitro cytotoxicity assay, MKN45; type: cell-based; settings: MKN45, HER2+
Source text: as §1, §2, §3

MDA-MB-231 = assay: In vitro cytotoxicity assay, MDA-MB-231; type: cell-based; settings: MDA-MB-231, HER2+
Source text: as §1, §2, §3

NCI-N87-hMDR1 = assay: In vitro cytotoxicity assay, MDR1-overexpressing NCI-N87-hMDR1; type: cell-based
Description: as §4, §5, §3

JIMT-1 xenograft = JIMT-1 xenograft tumor model, cytotoxic APDCs; type: in vivo, mice; settings: single intravenous injection 10 mg/kg at day zero
Description: Xenograft Tumor Model Experiments for Cytotoxic APDCs
Experiments of xenograft tumor model with cytotoxic APDCs were performed as previously described (Jumbe et al., 2010).

## Trastuzumab emtansine [Kadcyla]
SK-BR-3; Table 2
  IC50: 0.06 nM
SK-BR-3; Table 3
  GI50: 0.052 nM
NCI-N87; NCI-N87, HER2+++, Table 2
  IC50: 0.15 nM
NCI-N87; NCI-N87, HER2+++, Table 3
  GI50: 0.24 nM
NCI-N87; NCI-N87, Table 4 (MDR1 comparison)
  IC50: 0.38 nM
NCI-N87; NCI-N87, Table 5 (MDR1 comparison)
  GI50: 0.53 nM
JIMT-1; Table 2
  IC50: 14 nM
JIMT-1; Table 3
  GI50: 15 nM
Capan-1; Table 2
  IC50: 86 nM
Capan-1; Table 3
  GI50: 64 nM
MKN45; Table 2
  IC50: 52 nM
MKN45; Table 3
  GI50: 107 nM
MDA-MB-231; Table 2
  IC50: 62 nM
MDA-MB-231; Table 3
  GI50: 156 nM
NCI-N87-hMDR1; NCI-N87-hMDR1, Table 4
  IC50: 2.5 nM
NCI-N87-hMDR1; NCI-N87-hMDR1, Table 5
  GI50: 6.7 nM
NCI-N87-hMDR1; ratio of GI50 values, Table 5
  NCI-N87/NCI-N87-hMDR1 (folds), GI50: 13 folds
JIMT-1 xenograft
  tumor volume as a function of time (FIG. 1): significant tumor growth
